{
  "source": "PubChem BioAssay AID1288",
  "about": "(Columbia University Molecular Screening Center, 2008)",
  "assay": "E-selectin induction blockers, endothelial cells – imaging, retest plus dose response, cell count, confirmation (AID 1288);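 note: 0% = stimulated vehicle wells and 100% = unstimulated vehicle wells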",
  "details": "human endothelial cells, TNFa-induced E-selectin, imaging; at 2 µM; hits give high values",
  "note": "Activity calls are given as the source filed them. The rule behind the calls is not given here.",
  "data": [
    {"smiles": "Cc1cc(NC(=O)CCc2ccc(S(=O)(=O)N3CCOCC3)cc2)n(-c2ccccc2)n1", "values": [
      {"measurement": "inhibition", "result": "-9.97% (inactive)"}
    ]},
    {"smiles": "COc1ccc(N=C2SCC(=O)N2c2ccc(OC)cc2)cc1", "values": [
      {"measurement": "inhibition", "result": "-8.28% (inactive)"}
    ]},
    {"smiles": "CCCc1[nH]nc2c1C(c1ccc(O)c(OC)c1)C(C#N)=C(N)O2", "note": "(stereo not given)", "values": [
      {"measurement": "inhibition", "result": "16.6% (inactive)"}
    ]},
    {"smiles": "CCCOc1ccc(/C(O)=C2/C(=O)C(=O)N(CCCn3ccnc3)C2c2ccco2)cc1", "note": "(stereo not given)", "values": [
      {"measurement": "inhibition", "result": "0.88% (inactive)"}
    ]},
    {"smiles": "CC(C)(CO)NCC(O)Cn1cc(C=O)c2ccccc21", "note": "(stereo not given)", "values": [
      {"measurement": "inhibition", "result": "-5.31% (inactive)"}
    ]},
    {"smiles": "O=S(=O)(c1ccccc1)N1CCN(CC(O)COc2ccc3c(c2)CCC3)CC1", "note": "(stereo not given)", "values": [
      {"measurement": "inhibition", "result": "4.13% (inactive)"}
    ]},
    {"smiles": "COC(=O)CCC(=O)Nc1nc(-c2ccccc2)cs1", "values": [
      {"measurement": "inhibition", "result": "16.6% (inactive)"}
    ]},
    {"smiles": "CC(Oc1ccc(Cl)cc1Cl)C(=O)N(Cc1ccco1)C1CCS(=O)(=O)C1", "note": "(stereo not given)", "values": [
      {"measurement": "inhibition", "result": "33.5% (inactive)"}
    ]},
    {"smiles": "O=C(O)CSc1nnc(-c2ccncc2)n1CCc1ccccc1", "values": [
      {"measurement": "inhibition", "result": "28.9% (inactive)"}
    ]},
    {"smiles": "COc1ccc(Cc2nnc(SCC(=O)NC3CCCC3)o2)cc1", "values": [
      {"measurement": "inhibition", "result": "40.2% (inactive)"}
    ]},
    {"smiles": "O=C(c1ccccc1F)N1CCN(c2ccccc2F)CC1", "values": [
      {"measurement": "inhibition", "result": "27.8% (inactive)"}
    ]},
    {"smiles": "COc1cc(CN2CCN(c3ccc(C)cc3)CC2)cc([N+](=O)[O-])c1O", "values": [
      {"measurement": "inhibition", "result": "24.7% (inactive)"}
    ]},
    {"smiles": "CCOC(=O)c1cc(-c2ccccc2)sc1NC(=S)Nc1cccc(C)n1", "values": [
      {"measurement": "inhibition", "result": "-0.25% (inactive)"}
    ]},
    {"smiles": "CC(C)C(=O)Nc1ccc(-c2nc3cccnc3o2)cc1", "values": [
      {"measurement": "inhibition", "result": "15.7% (inactive)"}
    ]},
    {"smiles": "O=C(/C=C\\Nc1cccc(F)c1)c1cccs1", "values": [
      {"measurement": "inhibition", "result": "-1.7% (inactive)"}
    ]},
    {"smiles": "CC1(C)CC(=O)C(C=NCC2CCCO2)=C(O)C1", "note": "(stereo not given)", "values": [
      {"measurement": "inhibition", "result": "17.9% (inactive)"}
    ]},
    {"smiles": "Cn1c(SCC(=O)N2CCOCC2)nnc1-c1cccc(NC(=O)c2ccccc2)c1", "values": [
      {"measurement": "inhibition", "result": "-2.57% (inactive)"}
    ]},
    {"smiles": "O=C(CCc1ccccc1)Nc1ncc2c(n1)CCCC2=O", "values": [
      {"measurement": "inhibition", "result": "14.5% (inactive)"}
    ]},
    {"smiles": "Cc1cc(=O)oc2cc(OCC(=O)OCC(=O)NCc3ccc4c(c3)OCO4)ccc12", "values": [
      {"measurement": "inhibition", "result": "22.5% (inactive)"}
    ]},
    {"smiles": "NC(=S)NNc1cccc(Cl)c1", "values": [
      {"measurement": "inhibition", "result": "6.61% (inactive)"}
    ]},
    {"smiles": "CCOc1cc(N2CCOCC2)c(OCC)cc1NS(=O)(=O)c1ccc(Cl)s1", "values": [
      {"measurement": "inhibition", "result": "6.76% (inactive)"}
    ]},
    {"smiles": "COCCN1CN(S(=O)(=O)c2ccccc2)c2nc3ccccc3nc21", "values": [
      {"measurement": "inhibition", "result": "2.89% (inactive)"}
    ]},
    {"smiles": "CCOC(=O)c1cccc(NC(=O)CSc2nnc(-c3ccoc3C)n2CCOC)c1", "values": [
      {"measurement": "inhibition", "result": "-4.74% (inactive)"}
    ]},
    {"smiles": "COC(=O)c1cnc(SCc2ccc(C)cc2)n1C", "values": [
      {"measurement": "inhibition", "result": "15.2% (inactive)"}
    ]},
    {"smiles": "O=C(O)C1CCCN1S(=O)(=O)c1ccc(Br)s1", "note": "(stereo not given) (tested in a mixture with another compound)", "values": [
      {"measurement": "inhibition", "result": "6.99% (inactive)"}
    ]},
    {"smiles": "CCCCCCOC(=O)/C=C/c1c(C)[nH]c(=O)[nH]c1=O", "values": [
      {"measurement": "inhibition", "result": "30.8% (inactive)"}
    ]},
    {"smiles": "O=C(Cn1cc(C(=O)C(F)(F)F)c2cc(Br)ccc21)N1CCOCC1", "values": [
      {"measurement": "inhibition", "result": "7.56% (inactive)"}
    ]},
    {"smiles": "CC(Sc1nnc2c(n1)C1CCC2(C)C1(C)C)C(=O)Nc1ccccc1", "note": "(stereo not given)", "values": [
      {"measurement": "inhibition", "result": "9.66% (inactive)"}
    ]},
    {"smiles": "COc1ccccc1C(=O)NC(CCSC)C(=O)OCC(=O)NC(=O)NCc1ccco1", "note": "(stereo not given)", "values": [
      {"measurement": "inhibition", "result": "28% (inactive)"}
    ]},
    {"smiles": "COc1ccccc1N1CCN(c2cc(N3CCCC3)nc(C)n2)CC1", "values": [
      {"measurement": "inhibition", "result": "-3.57% (inactive)"}
    ]},
    {"smiles": "CCOC(=O)N1CCC(NC(=O)CN2C(=O)CSc3nc(C)cc(C)c32)CC1", "values": [
      {"measurement": "inhibition", "result": "3.53% (inactive)"}
    ]},
    {"smiles": "CC12CCC3(CO)COC(c4ccccc4O1)C2C3", "note": "(stereo not given)", "values": [
      {"measurement": "inhibition", "result": "13.6% (inactive)"}
    ]},
    {"smiles": "CCNC(=O)CN(CCc1ccccc1)S(C)(=O)=O", "values": [
      {"measurement": "inhibition", "result": "7.43% (inactive)"}
    ]},
    {"smiles": "Cc1ccccc1OCCCC(=O)Nc1ccc(N2CCOCC2)cc1", "values": [
      {"measurement": "inhibition", "result": "4.18% (inactive)"}
    ]},
    {"smiles": "COc1ccc(NC(=O)c2cc(-c3ccc(OC)c(OC)c3)on2)cc1OC", "values": [
      {"measurement": "inhibition", "result": "9.77% (inactive)"}
    ]},
    {"smiles": "COc1ccc(OC)c(S(=O)(=O)N(C)CC(=O)Nc2ccc3c(c2)OCO3)c1", "values": [
      {"measurement": "inhibition", "result": "5.06% (inactive)"}
    ]},
    {"smiles": "O=S(=O)(NCC(c1ccco1)N1CCN(c2ccccc2)CC1)c1ccc(F)cc1", "note": "(stereo not given)", "values": [
      {"measurement": "inhibition", "result": "6.17% (inactive)"}
    ]},
    {"smiles": "O=C1CC(N(Cc2cccs2)C(=O)Nc2ccccc2)C(=O)N1c1ccc(Cl)cc1", "note": "(stereo not given)", "values": [
      {"measurement": "inhibition", "result": "-1.04% (inactive)"}
    ]},
    {"smiles": "O=C(CO/N=C/c1ccccc1OC(F)F)NCc1cccs1", "values": [
      {"measurement": "inhibition", "result": "1.25% (inactive)"}
    ]},
    {"smiles": "O=C(O)CCC(=O)Nc1ccc(Br)c(Cl)c1", "values": [
      {"measurement": "inhibition", "result": "-3.06% (inactive)"}
    ]},
    {"smiles": "COc1ccccc1NC(=O)CSc1nnc2ccc(-c3cccnc3)nn12", "values": [
      {"measurement": "inhibition", "result": "-0.72% (inactive)"}
    ]},
    {"smiles": "Oc1ccccc1Nc1nc(NCC2CCCO2)c2ccccc2n1", "note": "(stereo not given)", "values": [
      {"measurement": "inhibition", "result": "5.39% (inactive)"}
    ]},
    {"smiles": "O=C1CC(c2ccccc2)SC(N(c2ccccc2)c2ccccc2)=N1", "note": "(stereo not given)", "values": [
      {"measurement": "inhibition", "result": "26.1% (inactive)"}
    ]},
    {"smiles": "COc1cccc(-c2cnc(NCc3cc(Cl)ccc3O)n2C)c1", "values": [
      {"measurement": "inhibition", "result": "3.22% (inactive)"}
    ]},
    {"smiles": "CN(C)S(=O)(=O)c1ccc(NS(=O)(=O)/C=C/c2ccccc2)cc1", "values": [
      {"measurement": "inhibition", "result": "0.79% (inactive)"}
    ]},
    {"smiles": "O=C(NC(=O)c1cccc(OC(F)(F)C(F)F)c1)OC1CCS(=O)(=O)C1", "note": "(stereo not given)", "values": [
      {"measurement": "inhibition", "result": "22.5% (inactive)"}
    ]},
    {"smiles": "O=Cc1ccc(OCc2ccccn2)cc1", "values": [
      {"measurement": "inhibition", "result": "15.8% (inactive)"}
    ]},
    {"smiles": "CCOC(=O)N1CCN(C(=O)C2CCN(S(=O)(=O)c3cc(OC)ccc3OC)CC2)CC1", "values": [
      {"measurement": "inhibition", "result": "1.55% (inactive)"}
    ]},
    {"smiles": "N=c1sccn1CC(=O)NCCc1ccc(Cl)cc1", "values": [
      {"measurement": "inhibition", "result": "3.43% (inactive)"}
    ]},
    {"smiles": "COCCCNC(=O)CN1C(=O)c2ccccc2C1=O", "values": [
      {"measurement": "inhibition", "result": "5.47% (inactive)"}
    ]}
  ]
}
